Data as given in patent US20100317528A1, “HERBICIDE CONTAINING BENZOYLPYRAZOLE COMPOUND” (ISHIHARA SANGYO KAISHA, LTD., priority 2006, published 2010).

Experiments:
Type in all cases: in vivo
[1] = tested on: barnyardgrass (Echinochloa crus-galli L.); test: Test Example 1: foliar treatment, upland pot test, barnyardgrass; details: 31 g/ha active ingredient, observed 17th to 25th day after application; for inhibition at 31 g/ha: Echinochloa crus-galli, read-out: Growth inhibition rate (%) Barnyardgrass
Source text: (§1) Upland field soil was put into a 1/170,000 hectare pot, and seeds of various plants were sown. When the respective plants reached predetermined leaf stage ((1) barnyardgrass (Echinochloa crus-galli L.): 1.0 to 3.0 leaf stage, (2) crabgrass (Digitaria sanguinalis L.): 1.0 to 3.0 leaf stage, (3) green foxtail (Setaria viridis L.): 1.0 to 3.0 leaf stage, (4) redroot pigweed (Amaranthus retroflexus L.): cotyledon stage to 2.0 leaf stage, (5) prickly sida (Sida spinosa L.): cotyledon stage to 1.0 leaf stage, (6) velvetleaf (Abutilon theophrasti MEDIC.): 0.1 to 1.5 leaf stage, (7) rice (Oryza sativa L.): 1.0 to 3.0 leaf stage, (8) wheat (Triticum spp.): 1.7 to 3.4 leaf stage, (9) corn (Zea mays L.): 2.0 to 3.5 leaf stage, (10) soybean (Glycine max Merr.): primary leaf stage to 0.4 leaf stage), wettable powders or emulsifiable concentrates of the compounds of the above formula (I) prepared in accordance with a conventional preparation method, were weighed so that the active ingredients became the prescribed amounts, and diluted with water in an amount corresponding to 500 liter per 1 hectare (containing 0.1 vol % of “KUSARINOH”, manufactured by NIHON NOHYAKU CO., LTD. as an agricultural spreader). The spray solutions thus prepared were applied for foliar treatment by a small sprayer.
(§2) On the 17th to 25th day after application, the state of growth of the respective plants was visually observed, and the herbicidal effect was evaluated by a growth inhibition rate (%) of 0 (equivalent to the non-treated area) to 100% (complete kill).

[2] = tested on: crabgrass (Digitaria sanguinalis L.); test: Test Example 1: foliar treatment, upland pot test, crabgrass; details: 31 g/ha active ingredient, observed 17th to 25th day after application; for inhibition at 31 g/ha: Digitaria sanguinalis, read-out: Growth inhibition rate (%) Crabgrass
Source text: as §1, §2

[3] = tested on: green foxtail (Setaria viridis L.); test: Test Example 1: foliar treatment, upland pot test, green foxtail; details: 31 g/ha active ingredient, observed 17th to 25th day after application; for inhibition at 31 g/ha: Setaria viridis, read-out: Growth inhibition rate (%) Green foxtail
Source text: as §1, §2

[4] = tested on: redroot pigweed (Amaranthus retroflexus L.); test: Test Example 1: foliar treatment, upland pot test, redroot pigweed; details: 31 g/ha active ingredient, observed 17th to 25th day after application; for inhibition at 31 g/ha: Amaranthus retroflexus, read-out: Growth inhibition rate (%) Redroot pigweed
Source text: as §1, §2

[5] = tested on: velvetleaf (Abutilon theophrasti MEDIC.); test: Test Example 1: foliar treatment, upland pot test, velvetleaf; details: 31 g/ha active ingredient, observed 17th to 25th day after application; for inhibition at 31 g/ha: Abutilon theophrasti, read-out: Growth inhibition rate (%) Velvetleaf
Source text: as §1, §2

rice (Oryza sativa L.) [6] = test: Test Example 1: foliar treatment, upland pot test, rice; details: 31 g/ha active ingredient, observed 17th to 25th day after application; for inhibition at 31 g/ha: Oryza sativa, read-out: Growth inhibition rate (%) Rice
Source text: as §1, §2

wheat (Triticum spp.) [7] = test: Test Example 1: foliar treatment, upland pot test, wheat; details: 31 g/ha active ingredient, observed 17th to 25th day after application; for inhibition at 31 g/ha: Triticum, read-out: Growth inhibition rate (%) Wheat
Source text: as §1, §2

corn (Zea mays L.) [8] = test: Test Example 1: foliar treatment, upland pot test, corn; details: 31 g/ha active ingredient, observed 17th to 25th day after application; for inhibition at 31 g/ha: Zea mays, read-out: Growth inhibition rate (%) Corn
Source text: as §1, §2

[9] = tested on: soybean (Glycine max Merr.); test: Test Example 1: foliar treatment, upland pot test, soybean; details: 31 g/ha active ingredient, observed 17th to 25th day after application
Source text: as §1, §2

[10] = tested on: barnyardgrass (Echinochloa crus-galli L.); test: Test Example 2: soil application on the day after sowing, barnyardgrass; details: 250 g/ha active ingredient, observed 19th to 28th day after application; for inhibition at 250 g/ha: Echinochloa crus-galli, read-out: Growth inhibition rate (%) Barnyardgrass
Source text: (§3) Upland field soil was put into a 1/170,000 hectare pot, and seeds of various plants barnyardgrass (Echinochloa crus-galli L.), crabgrass (Digitaria sanquinalis L.), green foxtail (Setaria viridis L.), redroot pigweed (Amaranthus retroflexus L.), prickly sida (Sida spinosa L.), velvetleaf (Abutilon theophrasti MEDIC.), rice (Oryza sativa L.), wheat (Triticum spp.), corn (Zea mays L.) and soybean (Glycine max Merr.)) were sown. On the day after sowing, wettable powders or emulsifiable concentrates of the compounds of the above formula (I) prepared in accordance with a conventional preparation method, were weighed so that the active ingredients became the prescribed amounts, and diluted with water in an amount corresponding to 500 liter per 1 hectare, followed by soil application with a small sprayer.
(§4) On the 19th to 28th day after the application, the state of growth of the respective plants was visually observed, and the herbicidal effect was evaluated by a growth inhibition rate (%) of from 0 (equivalent to the non-treated area) to 100% (complete kill).

[11] = tested on: crabgrass (Digitaria sanquinalis L.); test: Test Example 2: soil application on the day after sowing, crabgrass; details: 250 g/ha active ingredient, observed 19th to 28th day after application; for inhibition at 250 g/ha: Digitaria, read-out: Growth inhibition rate (%) Crabgrass
Source text: as §3, §4

[12] = tested on: green foxtail (Setaria viridis L.); test: Test Example 2: soil application on the day after sowing, green foxtail; details: 250 g/ha active ingredient, observed 19th to 28th day after application; for inhibition at 250 g/ha: Setaria viridis, read-out: Growth inhibition rate (%) Green foxtail
Source text: as §3, §4

[13] = tested on: redroot pigweed (Amaranthus retroflexus L.); test: Test Example 2: soil application on the day after sowing, redroot pigweed; details: 250 g/ha active ingredient, observed 19th to 28th day after application; for inhibition at 250 g/ha: Amaranthus retroflexus, read-out: Growth inhibition rate (%) Redroot pigweed
Source text: as §3, §4

[14] = tested on: prickly sida (Sida spinosa L.); test: Test Example 2: soil application on the day after sowing, prickly sida; details: 250 g/ha active ingredient, observed 19th to 28th day after application; for inhibition at 250 g/ha: Sida spinosa, read-out: Growth inhibition rate (%) Prickly sida
Source text: as §3, §4

[15] = tested on: velvetleaf (Abutilon theophrasti MEDIC.); test: Test Example 2: soil application on the day after sowing, velvetleaf; details: 250 g/ha active ingredient, observed 19th to 28th day after application; for inhibition at 250 g/ha: Abutilon theophrasti, read-out: Growth inhibition rate (%) Velvetleaf
Source text: as §3, §4

rice (Oryza sativa L.) [16] = test: Test Example 2: soil application on the day after sowing, rice; details: 250 g/ha active ingredient, observed 19th to 28th day after application; for inhibition at 250 g/ha: Oryza sativa, read-out: Growth inhibition rate (%) Rice
Source text: as §3, §4

wheat (Triticum spp.) [17] = test: Test Example 2: soil application on the day after sowing, wheat; details: 250 g/ha active ingredient, observed 19th to 28th day after application; for inhibition at 250 g/ha: Triticum, read-out: Growth inhibition rate (%) Wheat
Source text: as §3, §4

corn (Zea mays L.) [18] = test: Test Example 2: soil application on the day after sowing, corn; details: 250 g/ha active ingredient, observed 19th to 28th day after application; for inhibition at 250 g/ha: Zea mays, read-out: Growth inhibition rate (%) Corn
Source text: as §3, §4

[19] = tested on: soybean (Glycine max Merr.); test: Test Example 2: soil application on the day after sowing, soybean; details: 250 g/ha active ingredient, observed 19th to 28th day after application; for inhibition at 250 g/ha: Glycine max, read-out: Growth inhibition rate (%) Soybean
Source text: as §3, §4

[20] = tested on: prickly sida (Sida spinosa L.); test: Test Example 1: foliar treatment, upland pot test, prickly sida; details: 31 g/ha active ingredient, observed 17th to 25th day after application; for inhibition at 31 g/ha: Sida spinosa, read-out: Growth inhibition rate (%) Prickly sida
Source text: as §1, §2

| SMILES | Growth inhibition rate (%) Barnyardgrass [1] | Growth inhibition rate (%) Crabgrass [2] | Growth inhibition rate (%) Green foxtail [3] | Growth inhibition rate (%) Redroot pigweed [4] | Growth inhibition rate (%) Velvetleaf [5] | Growth inhibition rate (%) Rice (rice (Oryza sativa L.) [6]) | Growth inhibition rate (%) Wheat (wheat (Triticum spp.) [7]) | Growth inhibition rate (%) Corn (corn (Zea mays L.) [8]) | Growth inhibition rate (%) Barnyardgrass [10] | Growth inhibition rate (%) Crabgrass [11] | Growth inhibition rate (%) Green foxtail [12] | Growth inhibition rate (%) Redroot pigweed [13] | Growth inhibition rate (%) Prickly sida [14] | Growth inhibition rate (%) Velvetleaf [15] | Growth inhibition rate (%) Rice (rice (Oryza sativa L.) [16]) | Growth inhibition rate (%) Wheat (wheat (Triticum spp.) [17]) | Growth inhibition rate (%) Corn (corn (Zea mays L.) [18]) | inhibition at 31 g/ha [1] | inhibition at 31 g/ha [2] | inhibition at 31 g/ha [3] | further results |
| --- | --- | --- | --- | --- | --- | --- | --- | --- | --- | --- | --- | --- | --- | --- | --- | --- | --- | --- | --- | --- | --- |
| Cc1c(C(=O)c2cnn(C)c2O)ccc(S(C)(=O)=O)c1OC(C)C [compound 145] | 70% | 60% | 75% | 90% | 85% | 60% | 0% | 0% | 60% | 90% | 30% | 60% | 60% | 40% | 0% | 0% | 0% | – | – | – | Growth inhibition rate (%) Soybean [9]: 70%; Growth inhibition rate (%) Soybean [19]: 0% |
| COC(=O)c1c(S(C)(=O)=O)ccc(C(=O)c2cnn(C)c2O)c1C [compound 126] | – | – | – | – | – | – | – | – | – | – | – | – | – | – | – | – | – | 95% | 80% | 100% | inhibition at 31 g/ha [4]: 100%; inhibition at 31 g/ha [20]: 90%; inhibition at 31 g/ha [5]: 100%; inhibition at 31 g/ha (rice (Oryza sativa L.) [6]): 100%; inhibition at 31 g/ha (wheat (Triticum spp.) [7]): 0%; inhibition at 31 g/ha (corn (Zea mays L.) [8]): 5%; inhibition at 250 g/ha [10]: 90%; inhibition at 250 g/ha [11]: 100%; inhibition at 250 g/ha [12]: 70%; inhibition at 250 g/ha [13]: 100%; inhibition at 250 g/ha [14]: 70%; inhibition at 250 g/ha [15]: 70%; inhibition at 250 g/ha (rice (Oryza sativa L.) [16]): 95%; inhibition at 250 g/ha (wheat (Triticum spp.) [17]): 10%; inhibition at 250 g/ha (corn (Zea mays L.) [18]): 0%; inhibition at 250 g/ha [19]: 60% |
| CCn1ncc(C(=O)c2ccc(S(C)(=O)=O)c(C(=O)OC)c2C)c1O [compound 127] | – | – | – | – | – | – | – | – | – | – | – | – | – | – | – | – | – | 90% | 90% | 90% | inhibition at 31 g/ha [4]: 100%; inhibition at 31 g/ha [20]: 80%; inhibition at 31 g/ha [5]: 100%; inhibition at 31 g/ha (rice (Oryza sativa L.) [6]): 90%; inhibition at 31 g/ha (wheat (Triticum spp.) [7]): 0%; inhibition at 31 g/ha (corn (Zea mays L.) [8]): 40%; inhibition at 250 g/ha [10]: 85%; inhibition at 250 g/ha [11]: 100%; inhibition at 250 g/ha [12]: 100%; inhibition at 250 g/ha [13]: 100%; inhibition at 250 g/ha [14]: 60%; inhibition at 250 g/ha [15]: 70%; inhibition at 250 g/ha (rice (Oryza sativa L.) [16]): 70%; inhibition at 250 g/ha (wheat (Triticum spp.) [17]): 10%; inhibition at 250 g/ha (corn (Zea mays L.) [18]): 0%; inhibition at 250 g/ha [19]: 50% |
| CCOc1c(S(C)(=O)=O)ccc(C(=O)c2cnn(C)c2O)c1C [compound 144] | – | – | – | – | – | – | – | – | – | – | – | – | – | – | – | – | – | 98% | 95% | 100% | inhibition at 31 g/ha [4]: 100%; inhibition at 31 g/ha [20]: 100%; inhibition at 31 g/ha [5]: 100%; inhibition at 31 g/ha (rice (Oryza sativa L.) [6]): 75%; inhibition at 31 g/ha (wheat (Triticum spp.) [7]): 20%; inhibition at 31 g/ha (corn (Zea mays L.) [8]): 10%; inhibition at 250 g/ha [10]: 80%; inhibition at 250 g/ha [11]: 100%; inhibition at 250 g/ha [12]: 70%; inhibition at 250 g/ha [13]: 75%; inhibition at 250 g/ha [14]: 50%; inhibition at 250 g/ha [15]: 50%; inhibition at 250 g/ha (rice (Oryza sativa L.) [16]): 70%; inhibition at 250 g/ha (wheat (Triticum spp.) [17]): 0%; inhibition at 250 g/ha (corn (Zea mays L.) [18]): 0%; inhibition at 250 g/ha [19]: 0% |
| COCCOc1c(S(C)(=O)=O)ccc(C(=O)c2c(C)nn(C(C)C)c2O)c1C [compound 260] | 95% | 80% | 70% | 90% | 70% | 70% | 0% | 0% | 100% | 100% | 100% | 100% | 60% | 70% | 100% | 20% | 60% | – | – | – | Growth inhibition rate (%) Prickly sida [20]: 30%; Growth inhibition rate (%) Soybean [9]: 40% |
| COC(=O)Cc1c(S(C)(=O)=O)ccc(C(=O)c2cnn(C)c2O)c1C [compound 156] | 75% | 90% | 70% | 70% | 80% | 70% | 0% | 0% | 60% | 95% | 50% | 100% | 80% | 80% | 60% | 0% | 0% | – | – | – | Growth inhibition rate (%) Prickly sida [20]: 60%; Growth inhibition rate (%) Soybean [19]: 0% |
